Test results from patent US6096930A, “Herbicidal cyclohexane-1,3-dione derivatives and their preparation process” (Korea Research Institute of Chemical Technology, priority 1994, dated 2000).
Like-named read-outs stand apart in the source and are kept apart here.

Assays:
Test in all cases: Herbicidal activity for paddy test
Type in all cases: in vivo
ORYSA = conditions: for plant injury at 2 g/ha: 0.002 kg/ha; for plant injury at 8 g/ha: 0.008 kg/ha; for plant injury at 31 g/ha: 0.031 kg/ha; for plant injury at 125 g/ha: 0.125 kg/ha; for plant injury at 500 g/ha: 0.500 kg/ha
Procedure, shortened: (§1)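 For paddy conditions, species grew in furrows within pots of sterilized sandy loam soil (115 cm^2 surface area), and efficacy was judged by eye as percent control, with 0 meaning no herbicidal effect and 100 meaning total kill.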

MOOVA = conditions: for pest or weed control at 2 g/ha: 0.002 kg/ha; for pest or weed control at 8 g/ha: 0.008 kg/ha; for pest or weed control at 31 g/ha: 0.031 kg/ha; for pest or weed control at 125 g/ha: 0.125 kg/ha; for pest or weed control at 500 g/ha: 0.500 kg/ha
Procedure, shortened: as §1

SAGPY = conditions: for pest or weed control at 2 g/ha: 0.002 kg/ha; for pest or weed control at 8 g/ha: 0.008 kg/ha; for pest or weed control at 31 g/ha: 0.031 kg/ha; for pest or weed control at 125 g/ha: 0.125 kg/ha; for pest or weed control at 500 g/ha: 0.500 kg/ha
Procedure, shortened: as §1

ECHOR = conditions: for pest or weed control at 2 g/ha: 0.002 kg/ha; for pest or weed control at 8 g/ha: 0.008 kg/ha; for pest or weed control at 31 g/ha: 0.031 kg/ha; for pest or weed control at 125 g/ha: 0.125 kg/ha; for pest or weed control at 500 g/ha: 0.500 kg/ha
Procedure, shortened: as §1

SCPJU = conditions: for pest or weed control at 2 g/ha: 0.002 kg/ha; for pest or weed control at 8 g/ha: 0.008 kg/ha; for pest or weed control at 31 g/ha: 0.031 kg/ha; for pest or weed control at 125 g/ha: 0.125 kg/ha; for pest or weed control at 500 g/ha: 0.500 kg/ha
Procedure, shortened: as §1

[1] = 3 Leaf, read-out: Herbicidal activity, ORYSA (3 Leaf)
[2] = seed, read-out: Herbicidal activity, ORYSA (seed)

Row | Compound | plant injury at 2 g/ha (ORYSA; [1]) [%] | plant injury at 8 g/ha (ORYSA; [1]) [%] | plant injury at 31 g/ha (ORYSA; [1]) [%] | plant injury at 125 g/ha (ORYSA; [1]) [%] | plant injury at 500 g/ha (ORYSA; [1]) [%] | plant injury at 2 g/ha (ORYSA; [2]) [%] | plant injury at 8 g/ha (ORYSA; [2]) [%] | plant injury at 31 g/ha (ORYSA; [2]) [%] | plant injury at 125 g/ha (ORYSA; [2]) [%] | plant injury at 500 g/ha (ORYSA; [2]) [%] | pest or weed control at 2 g/ha (MOOVA) [%] | pest or weed control at 8 g/ha (MOOVA) [%] | pest or weed control at 31 g/ha (MOOVA) [%] | pest or weed control at 125 g/ha (MOOVA) [%] | pest or weed control at 500 g/ha (MOOVA) [%] | pest or weed control at 2 g/ha (SAGPY) [%] | pest or weed control at 8 g/ha (SAGPY) [%] | pest or weed control at 31 g/ha (SAGPY) [%] | pest or weed control at 125 g/ha (SAGPY) [%] | pest or weed control at 500 g/ha (SAGPY) [%] | also measured
1 | CCC(=NOC)C1=C(O)CC(c2c(C)c(C)c3c(c2C)CC(C)(C)C3)CC1=O (stereo not drawn) [Compound 1] | 0 | 0 | 0 | 90 | 100 | 0 | 70 | 100 | 100 | 100 | 0 | 0 | 0 | 0 | 0 | 0 | 0 | 0 | 0 | 0 | pest or weed control at 2 g/ha (ECHOR): 95%; pest or weed control at 8 g/ha (ECHOR): 95%; pest or weed control at 31 g/ha (ECHOR): 100%; pest or weed control at 125 g/ha (ECHOR): 100%; pest or weed control at 500 g/ha (ECHOR): 100%; pest or weed control at 2 g/ha (SCPJU): 0%; pest or weed control at 8 g/ha (SCPJU): 0%; pest or weed control at 31 g/ha (SCPJU): 0%; pest or weed control at 125 g/ha (SCPJU): 0%; pest or weed control at 500 g/ha (SCPJU): 0%
2 | CCON=C(CC)C1=C(O)CC(c2c(C)c(C)c3c(c2C)CC(C)(C)C3)CC1=O (stereo not drawn) [Compound 2] | 0 | 0 | 0 | 60 | 100 | 30 | 80 | 100 | 100 | 100 | 0 | 0 | 0 | 0 | 0 | 0 | 0 | 0 | 0 | 0 | pest or weed control at 2 g/ha (ECHOR): 60%; pest or weed control at 8 g/ha (ECHOR): 100%; pest or weed control at 31 g/ha (ECHOR): 100%; pest or weed control at 125 g/ha (ECHOR): 100%; pest or weed control at 500 g/ha (ECHOR): 100%; pest or weed control at 2 g/ha (SCPJU): 0%; pest or weed control at 8 g/ha (SCPJU): 0%; pest or weed control at 31 g/ha (SCPJU): 0%; pest or weed control at 125 g/ha (SCPJU): 0%; pest or weed control at 500 g/ha (SCPJU): 0%
3 | CCCC(=NOC)C1=C(O)CC(c2c(C)c(C)c3c(c2C)CC(C)(C)C3)CC1=O (stereo not drawn) [Compound 6] | 0 | 0 | 0 | 20 | 65 | 0 | 0 | 100 | 100 | 100 | 0 | 0 | 0 | 0 | 0 | 0 | 0 | 0 | 0 | 40 | pest or weed control at 2 g/ha (ECHOR): 0%; pest or weed control at 8 g/ha (ECHOR): 60%; pest or weed control at 31 g/ha (ECHOR): 100%; pest or weed control at 125 g/ha (ECHOR): 100%; pest or weed control at 500 g/ha (ECHOR): 100%; pest or weed control at 2 g/ha (SCPJU): 0%; pest or weed control at 8 g/ha (SCPJU): 0%; pest or weed control at 31 g/ha (SCPJU): 0%; pest or weed control at 125 g/ha (SCPJU): 0%; pest or weed control at 500 g/ha (SCPJU): 0%
